# Patent US20260132151A1, “NOVEL N,N-DIMETHYLTRYPTAMINE (DMT) DERIVATIVES AND USES THEREOF” (priority 2022, published 2026)
# “Also recorded” adds a separate entry of the source. Like-named read-outs stand apart in the source and are kept apart here.
# Assays:
# [1] = format: physicochemical; settings: for stability of the prodrug (in words): 1% HCl, pH 7.4 and pH 8.0 compared; for release of DMT / conversion to DMT (in words): all tested pHs: 1% HCl, pH 7.4, pH 8.0; for degradation of the prodrug: essentially instantaneous, with liberation of DMT
# Protocol: Four compounds (i.e., methyl carbamate [compound 8, Example 8], boc carbamate [compound 11, […]], pinacol boronic ester [compound 1, Example 1] and TFA-amide [compound 3, Example 3]) were tested for their stability in 1% hydrochloric acid (HCl) as well as in phosphate buffers (0.1 M) at pH 7.4 and pH 8.0, respectively. These conditions were selected to assess the chemical stability of these compounds at a pH corresponding to different physiological conditions. Dilute hydrochloric acid (pH 1) was used to mimic the low pH of gastric acid within the stomach, while potassium phosphate buffers of pH 7.4 and pH 8.0 were used to mimic conditions in human blood and small intestine, respectively.
# 4 mg of each test compound was diluted in 4 mL of either a 1% HCl solution or the respective phosphate buffer (0.1 M), resulting in a solution of 1 mg/mL each. Regarding the acidic testing with hydrochloric acid, 2 mL of aqueous test compound solutions were then added to 2 mL of 2% (v/v) in distilled water, yielding a final HCl concentration of […] (pH 0.5). Test solutions were incubated at 37° C. with constant stirring for approximately 21 hours. The concentrations of the parent compound were analyzed at different timepoints using LC/MS. The concentrations of the parent prodrug and released drug were expressed relative to the starting concentration of the parent prodrug.
# SERT [2] = molecular target: T1, SERT (Homo sapiens, UniProt P31645); experiment: Uptake inhibition assay ([3H]5-HT) in HEK293-SERT cells; format: cell-based; parameters: expressed in transfected cells; settings: for IC50: HEK293-SERT cells
# Protocol: (§1) Human embryonic kidney (HEK) 293 cells stably expressing human SERT were maintained in humidified atmosphere (37° C., 5% CO2) in Dulbecco's Modified Eagle Medium (DMEM), supplemented with 10% heat-inactivated fetal calf serum (FCS), streptomycin (100 μg×100 mL^−1) and penicillin (100 U×100 mL^−1). Geneticin (50 μg×mL^−1) was used as selection antibiotic.
# One day before the experiment, HEK293-SERT cells were seeded onto poly-D-lysine coated 96 well plates at a density of 30,000 cells per well in a final volume of 200 μL. For uptake experiments, the cell culture medium was replaced with 300 μL Krebs-HEPES buffer (KHB; 25 mM HEPES, 120 mM NaCl, 5 mM KCl, 1.2 mM CaCl2, 1.2 mM MgSO4, and 5 mM D-glucose, pH 7.3). Then, the buffer was replaced with various concentrations of test compounds for 5 minutes; subsequent to that, 0.1 μM [^3H]5-HT in KHB was added to yield a total volume of 50 μL in the well. For determination of non-specific uptake, paroxetine was used (3 μM).
# Uptake was terminated after 60 s by washing the cells with 200 μL ice-cold KHB. Subsequently, the cells were lysed with 200 μL Ultima Gold™ XR liquid scintillation cocktail, and the amount of tritium in the cells was measured with a Wallac 1450 MicroBeta® TriLux liquid scintillation counter. Monoamine uptake data were fitted by nonlinear regression, Vmax and Km values were calculated from Michaelis Menten's least-squares fit with GraphPad Prism (Prism 9.0.2, GraphPad Software, San Diego, CA, USA).
# We tested Example 1, Example 4, Example 13 in both uptake inhibition and release assays, and Example 15 in uptake inhibition assays. Drugs were tested either as the undecomposed prodrug or after treatment with 0.5% HCl at 37° C. for 24 hours in order to simulate digestion of the prodrug by gastric acid inside the body after peroral administration. DMT was tested dissolved only in DMSO.
# SERT [3] = molecular target: T1, SERT; experiment: Release (efflux) assay in HEK293-SERT cells loaded with [3H]5-HT; format: cell-based; parameters: expressed in transfected cells; settings: Examples dissolved in HCl, DMT in DMSO, compared with pCA (full releaser)
# Protocol: as §1
# The day prior to the assay, stably expressing HEK293-SERT cells were seeded in a perfusion chamber of an IBIDI microfluidic chip (μ-Slide VI 0.5 Glass Bottom, ibidi GmbH). Chambers were previously coated with poly-D-lysine for 20 min at 37° C. and then cells were seeded at a density of approximately 1-10^6 cells×mL^−1.
# For the release experiment, cells were loaded with radioactive substrate […] [^3H]5-HT for 20 min at 37° C. and then perfused with different solutions at constant flow rate (0.6 μL min^−1). […] The cells were flushed using sodium dodecyl sulfate (SDS) to retrieve the residual radioactivity (6 min). […]
# Radioactivity was quantified with a beta-scintillation counter (PerkinElmer, Waltham, MA, USA). The released amount of tritiated substrate for each fraction was expressed as the amount of released tritium compared to the amount remaining in the cell at the end of the previous fraction. […]
# SERT [4] = molecular target: T1, SERT; parameters: host or cells: human platelets (endogenous SERT); settings: read-out: uptake inhibition by DMT; human platelets expressing SERT; literature value; cited from earlier work
# [5] = after treatment with 0.5% HCl at 37° C. for 24 hours, read-out: Uptake inhibition, IC50 values, SERT
# [6] = undecomposed compound dissolved in DMSO, no HCl pre-treatment, read-out: Uptake inhibition, IC50 values, SERT
# T1 sequence (P31645 whole entry): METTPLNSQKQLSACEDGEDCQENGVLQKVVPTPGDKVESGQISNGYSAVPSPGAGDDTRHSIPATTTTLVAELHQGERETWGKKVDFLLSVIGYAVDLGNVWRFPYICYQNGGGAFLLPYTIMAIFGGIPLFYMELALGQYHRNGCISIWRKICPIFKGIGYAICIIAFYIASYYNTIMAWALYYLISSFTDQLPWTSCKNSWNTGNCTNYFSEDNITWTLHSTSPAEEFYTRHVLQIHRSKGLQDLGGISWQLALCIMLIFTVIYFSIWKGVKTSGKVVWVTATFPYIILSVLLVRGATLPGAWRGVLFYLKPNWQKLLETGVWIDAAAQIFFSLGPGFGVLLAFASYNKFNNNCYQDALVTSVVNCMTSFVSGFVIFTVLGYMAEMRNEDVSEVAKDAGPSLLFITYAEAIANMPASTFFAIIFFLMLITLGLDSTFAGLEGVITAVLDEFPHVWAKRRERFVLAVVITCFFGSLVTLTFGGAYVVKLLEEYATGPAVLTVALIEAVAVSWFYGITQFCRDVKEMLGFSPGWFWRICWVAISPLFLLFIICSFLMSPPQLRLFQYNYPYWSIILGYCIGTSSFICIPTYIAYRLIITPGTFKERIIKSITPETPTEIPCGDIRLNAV
smiles,measurement,setting,value
"CN(C)CCc1cn(C(=O)OC(C)(C)C)c2ccccc12 [Example 11, tert-butyl 3-(2-(dimethylamino)ethyl)-1H-indole-1-carboxylate]",liberation of DMT / conversion under acidic conditions,"[1]; 1% HCl solution (pH 1.0), 37° C., approximately 21 hours",remarkably fast release time of two hours
same,stability of the prodrug (in words),[1],significantly more stable under all tested conditions
same,release of DMT / conversion to DMT (in words),[1]; 37° C.,Conversion to DMT proceeded efficiently throughout the entire experiment at all pHs
"COC(=O)n1cc(CCN(C)C)c2ccccc21 [Example 8, methyl 3-(2-(dimethylamino)ethyl)-1H-indole-1-carboxylate]",release of DMT at pH 7.4 and pH 8.0,"[1]; phosphate buffers (0.1 M) pH 7.4 and pH 8.0, 37° C.",continuous release of DMT
"CN(C)CCc1cn(C(=O)C(C)(C)C)c2ccccc12 [Example 4, 1-(3-(2-(dimethylamino)ethyl)-1H-indol-1-yl)-2,2-dimethylpropan-1-one]",IC50,SERT [2]; [5],8.3 µM
same,IC50,SERT [2]; [6],~2.1 µM
same,transporter-mediated efflux (release) via SERT,SERT [3],induces even less efflux; also recorded: yields a lower efflux compared to both DMT and Example 1
"CN(C)CCc1c[nH]c2cccc(B3OC(C)(C)C(C)(C)O3)c12 [Example 1, N,N-dimethyl-2-(4-(4,4,5,5-tetramethyl-1,3,2-dioxaborolan-2-yl)-1H-indol-3-yl)ethan-1-amine]",stability of the prodrug (in words),[1],maximum stability under acidic conditions
same,release of DMT / conversion to DMT (in words),[1]; 37° C.,releasing DMT rapidly within minutes
same,IC50,SERT [2]; [5],13.6 µM
same,IC50,SERT [2]; [6],26.7 µM
"CN(C)CCc1cn(S(=O)(=O)C2CC2)c2ccccc12 [Example 13, 2-(1-(cyclopropylsulfonyl)-1H-indol-3-yl)-N,N-dimethylethan-1-amine]",IC50,SERT [2]; [5],22.2 µM
same,IC50,SERT [2]; [6],93.8 µM
same,interaction with the transporter without pre-treatment (in words),"SERT [2]; uptake inhibition, no HCl pre-treatment (DMSO)",interaction with the transporter was scarce
"CN(C)CCc1c[nH]c2ccccc12 [DMT, N,N-Dimethyltryptamine]",IC50,"SERT [2]; Uptake inhibition, IC50 values, SERT, undecomposed compound dissolved in DMSO, no HCl pre-treatment",12.3 µM
same,transporter-mediated efflux (release) via SERT,SERT [3],almost full efficacious release
same,IC50,SERT [4],~10 µM
"CN(C)CCc1cn(C(=O)C(F)(F)F)c2ccccc12 [Example 3, 1-(3-(2-(dimethylamino)ethyl)-1H-indol-1-yl)-2,2,2-trifluoroethan-1-one]",stability of the prodrug (in words),[1],maximum stability under acidic conditions
same,release of DMT / conversion to DMT (in words),[1]; 37° C.,releasing DMT rapidly within minutes
same,degradation of the prodrug,"[1]; phosphate buffer (0.1 M) pH 7.4, 37° C.",100%
same,degradation of the prodrug,"[1]; phosphate buffer (0.1 M) pH 8.0, 37° C.",100%
